Experimental data as given in PubChem BioAssay AID977607 (Broad Institute, 2014).
Calls of active or inactive are those of the source.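 Rule for the calls: active = curve reaches 40% activation over neutral controls at an AC40 no higher than the top valid tested concentration; inconclusive = no clear call, values can overlap the other calls; inactive = signal moving opposite to the expected increase, and the rest.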

Tested on: INS-1E GLuc insulin secretion reporter, luminescence, 2-3 h
Test: GLuc-reported insulin release enhancers, glucose-stimulated beta cells – cell-based, INS-1E, Gaussia luciferase, luminescence, cherry-pick, set 2, dose response (AID 977607)

Structure (SMILES)	AC40
Fc1cccc(-c2ccc(C3[C@@H]4CN(Cc5ccccc5F)C[C@H]3N4)cc2)c1 (some centres undefined)	5.28 µM
COc1ccc(/C=N/NC(=O)Cn2nnc3ccccc32)cc1OC	24.4 µM
O=C(c1cccs1)c1coc2ccc(O)c(CN3CCOCC3)c12	> 35 µM (inactive)
N#Cc1sc2nc3c(c(-c4cccnc4)c2c1N)CCC3	26.5 µM
COc1ccc(C2=Nn3c(nnc3-c3ccncc3)SC2)cc1OC	13.3 µM
O=C(NCc1ccccn1)c1coc(=O)c(Br)c1	2.01 µM
COC(=O)C1=C(C)N(Cc2cccc(C(F)(F)F)c2)C(=NCc2ccc3c(c2)OCO3)NC1CCc1ccccc1 (centres undefined)	13.1 µM
CCn1c(O)c(/C=N/N=C/c2ccc(OC)cc2)c2cc(C3=NNC(=O)CC3)ccc21	4.21 µM
O=c1c2cc(F)ccc2sn1-c1ccccc1Cl	1.85 µM
C=C[C@@]1(C)CC(=O)[C@]2(O)[C@@]3(C)[C@@H](O)CCC(C)(C)[C@@H]3[C@H](O)[C@H](OC(C)=O)[C@@]2(C)O1	0.0336 µM
O=C1N/C(=N\N=C\c2cccs2)SC1Cc1cccc(Cl)c1 (centres undefined)	9.04 µM
C[C@@H]1CN([C@H](C)CO)S(=O)(=O)c2ccc(-c3ccc(F)cc3)cc2O[C@H]1CN(C)Cc1cccc(F)c1	15.5 µM
Cc1ccc(/C=N/NC(=O)COc2ccccc2-c2ccccc2)cc1	7.03 µM
CC(C)Nc1nc(NC(C)(C)C)nc(Oc2ccc(=O)n(C)n2)n1	29.2 µM
C=CCN(Cc1ccc(OC)c(OC)c1)C(=O)N1CCOCC1	> 35 µM (inactive)
Cc1cccc(OCC(=O)Nc2ccc(NC(=O)c3ccco3)cc2)c1	17.8 µM
Cc1ccc(-c2n[nH]c(=S)n2/N=C/c2c(C)nn(-c3ccccc3)c2C)cc1	11.2 µM
COc1ccc(CCN(C)C(=O)COc2cccc(-n3cnnn3)c2)cc1OC	> 35 µM (inactive)
COc1ccccc1C(=O)Nc1c2c(nn1-c1cccc(C)c1C)CS(=O)(=O)C2	7.77 µM
C[C@H]1CN([C@@H](C)CO)S(=O)(=O)c2ccc(C#Cc3ccccc3)cc2O[C@@H]1CN(C)C(=O)CN(C)C	28 µM
O=c1[nH]c(/C=C/c2ccc(OC(F)F)cc2)nc2c1cnn2-c1ccccc1	21.6 µM
CC(C)(C)c1nc2ccc(Cl)cn2c1CC1CCCCC1	16 µM
O=C(NC(=S)Nc1ccc(NC(=O)c2cccs2)cc1)c1cc2ccccc2o1	14.3 µM
CNc1nc(Cl)nc2c1ncn2-c1ccccc1	15.6 µM
OC(CNCCc1ccc(C(F)(F)F)cc1)COc1cccc2ccccc12 (centres undefined)	4.54 µM

Structure (SMILES)	AC40
CN(C)Cc1ccccc1Sc1ccc2c(c1)CCCC2	16.6 µM
COc1ccc(CCn2ccc(O)c(Cc3c(F)cccc3Cl)c2=O)cc1OC	0.0544 µM
CCOC(=O)[C@]12Cc3cc(OC)ccc3[C@H]1N(C1CCCCC1)C(=O)c1cc(OC)ccc12	12 µM
CCCCc1c(-c2cccc(OC)c2)ncn1CCc1ccccc1OC	11.8 µM
CCCCc1c(-c2ccc(F)cc2F)ncn1CCc1ccccc1OC	8.96 µM
Fc1cccc(CN2C[C@@H]3N[C@H](C2)[C@@H]3c2ccc(-c3cccc(F)c3)cc2)c1	3.93 µM
c1ccc(-c2nnc3n2-c2ccccc2SC3)cc1	> 35 µM (inactive)
O=C(CCN1CCOCC1)c1ccc2c(c1)OCCO2	14.5 µM
CCOC(=O)c1cn(-c2ccccc2)nc1-c1ccncc1	10.5 µM
COc1ccc(/C=N/N(C(C)=O)c2nc(-c3ccc(C)cc3)cs2)cc1	0.895 µM
N#Cc1cccc(Oc2ccc(-c3cnc4ccccc4n3)cc2)c1C#N	13.1 µM
COc1ccc(-c2nnc3sc(-c4cccs4)nn23)cc1OC	22 µM
O=C(Nc1ccc2c(c1)OCO2)c1sc2cc(Cl)ccc2c1Cl	12 µM
O=c1c2ccccc2sn1-c1ccc(F)cc1	7.1 µM
NC1=NC[C@H](c2ccccc2)N1CCCCC1CCCCC1	28.8 µM
CCCCCc1c(Cc2ccccc2)ncn1CCc1ccccc1OC	12.3 µM
Cc1ccc(-n2nc3ccc(NC(=O)c4ccco4)cc3n2)cc1	10.8 µM
COc1ccc2nc3ccccc3nc2c1NC(=O)c1ccc(Cl)cc1Cl	6.29 µM
COc1ccc(N2CCN(c3ccc(NC(=O)C4CCCCC4)cc3C#N)CC2)cc1	2.8 µM
COc1ccc(CCNC(=O)CCc2nc3ccccc3[nH]2)cc1OC	0.311 µM
COc1ccc(-n2sc3ccccc3c2=O)cc1	3.14 µM
NS(=O)(=O)c1ccc(NC(=O)COC(=O)c2cn(-c3ccccc3)nc2-c2ccc(F)cc2)cc1	4.82 µM
COc1ccc(-c2cnnn2-c2ccc(N)cc2)cc1OC	> 35 µM (inactive)
CN1CCN(C2Cc3ccccc3Sc3cc(C(F)(F)F)ccc32)CC1 (centres undefined)	16 µM
